Measurements reported in US20240238278A1, “Pharmaceutical Composition for Preventing or Treating Fibrosis” (Daewoong Pharmaceutical Co., Ltd., priority 2021, published 2024).

How the values were obtained:
[1] = tested on: animal model of pulmonary fibrosis; test: Measurement of total collagen content in lung (INSOLUBLE Collagen Assay); format: in vivo, mouse; conditions: BLM mice, PO, day 21, n 9; first component 10 mg/kg, NIN 60 mg/kg, PID 200 mg/kg
Experimental: (§1) 70-100 uL of BLM solution (bleomycin 1-3 mg/kg) was administered to a lung of the acclimatized experimental animals using a catheter for 5 days or more. In accordance with the purpose of the test, the test drug was administered 7 days after BLM administration, and the drug was orally administered for 2 weeks until the 21st day of BLM administration.
In this experimental example, analysis was performed using INSOLUBLE Collagen Assay (Biocolor, S2000). After sacrifice on the 21st day, the cryopreserved lung tissue was pulverized by adding 100 uL of Fragmentation Reagent, and then, 100 uL of 37% HCl was added and incubated at 65° C. for 3 hours. The contents of the tube were shaken at 30 minute intervals to aid tissue disintegration. After centrifugation, the concentration was adjusted to 100 μL and collagen staining was proceeded to prepare a sample. Absorbance was measured at 560 nm.

[2] = tested on: animal model of pulmonary fibrosis; test: Inflammation cell count analysis in BALF; format: in vivo; conditions: BLM mice, PO, day 21; first component 10 mg/kg, NIN 60 mg/kg, PID 200 mg/kg
Experimental: as §1
At the sacrifice on the 21st day of administration, BALF (Bronchoalveolar lavage fluid) cells obtained through airway washing of mice were diluted with 1.05×PBS and attached to a slide, and then the slide was immersed and removed for 30 seconds in the order of 1, 2, 3 diff quick stain solution, and stained. It was counted based on 500 cells. Macrophages are the largest in size, mononuclear, and stained blue. Neutrophils and eosinophils form polynuclear cells, but eosinophils are stained red with eosin and distinguished from neutrophils. Lymphocytes have very less cytoplasm and are small in size as monocytes.

[3] = tested on: animal model of pulmonary fibrosis; test: Lung function evaluation (SpO2) in BLM animal model; format: in vivo, mouse; conditions: BLM mice, PO, day 21, first component 10 mg/kg, NIN 60 mg/kg, PID 200 mg/kg
Experimental: as §1
This lung function evaluation is the most direct and important evaluation index that has the greatest influence on the symptoms and quality of life of patients with pulmonary fibrosis, and is an experiment that can most directly show the effect of improving lung function in an animal model of pulmonary fibrosis by measuring the oxygen concentration in the body.
On the 21st day, it was measured with a SpO2 measuring device (Berry, Veterinary Pulse Oximeter) via the abdominal side of the mouse, and the results are shown in Table 5 and FIG. 3.

[4] = Drug interaction clinical trial, combined administration; format: in vivo, human; conditions: Part 2, healthy adults; first component 150 mg enteric tablet
Experimental: To evaluate the drug interaction during the combined administration of the first component and the second component, a clinical trial was conducted on a total of 48 healthy adults, divided into two groups of 24 each for Part 1 and Part 2. The clinical trial was designed by a fixed sequence, three-phase, and one 150 mg enteric tablet of the first component was orally administered.
Subjects enrolled in Part 1 were sequentially given a single dose of 600 mg of the second component (PID) in the phase 1, a single dose of 150 mg of the first component in the phase 2. After that, washout progressed on the 3rd day, and 150 mg of the first component was administered multiple times for 3 days, and in the final phase 3, a single dose of the first component and the second components (NIN) was administered in combination.

DHLF cell line = test: Non-clinical anti-fibrotic efficacy: Western blotting of TGF-β treated DHLF cell line; format: cell-based; conditions: TGF-β 10 ng/ml, 72 hours
Experimental: 10 mM of the first component was diluted with DMSO so as to be to 100 uM. It was diluted with DMSO so as to be 10, 3, 1 uM, and 10 mM of the second component (NIN) was diluted with DMSO to be 50 nM.
A DHLF cell line (FGM™-2 Bullet Kit™, 10% FBS), which is a lung fibrosis cell line, was prepared, and cultured in a T75 Easy Flask Filter at 37° C. and 5% CO2 using FBM medium. The cultured DHLF cell line was treated with 10 ng/mL of TGF-β and the test drug alone or in combination, cultured for 72 hours, then the media was removed, the protein was extracted, and the extracted protein was quantified using the BCA Protein Assay Kit. Based on the quantitative value of each extracted protein, 10 to 20 ug of protein was subjected to Western blotting. The protein after running was transferred to the PVDF membrane. After TBS-T washing 3 times, each PVDF membrane was treated with 1 mL of ECL solution, and then the protein expression level was measured using an AI680 imager. Each band value was calculated as a numerical value normalized compared to β-actin through ImageJ, and is shown in Tables 2 and 3 and FIGS. 1 and 2 below.

[5] = Measurement of change in body weight in BLM animal model; format: in vivo, mouse; parameters: unit not given here; conditions: BLM mice, first component 10 mg/kg, NIN 60 mg/kg, PID 200 mg/kg
Experimental: as §1
The body weight was measured once every 0, 7, 14, 17, and 21 days for 3 weeks, and from the 14th day when the drug effect began to be noticeable after the administration, it was measured every 3 days.

[6] = Table 2, second component (NIN) 50 ng/ml alone
[7] = Table 3, second component (NIN) 100 ng/ml alone

## COC(=O)c1ccc2c(c1)NC(=O)/C2=C(\Nc1ccc(N(C)C(=O)CN2CCN(C)CC2)cc1)c1ccccc1 [Second component (NIN), Nintedanib]
[1]
  total collagen content in lung (hydroxyproline value, ratio compared with normal group): 192
[2]
  Eosinophil count in BALF: 0
  Lymphocyte count in BALF: 5
  Macrophage count in BALF: 53
  Neutrophil count in BALF: 10
  total cell in BALF: 69 10^4
[3]
  SpO2 Average value: 79.8
[3]; vs vehicle
  SpO2 Differance: 3.8
  SpO2 Rate of increase: 5%
[4]
  drug interaction when administered in combination with the first component vs alone: no clinically significant drug interaction
DHLF cell line; [6]
  COL1A1 Relative value (based on control): 4.60
  SMA-α Relative value (based on control): 2.63
DHLF cell line; [7]
  COL1A1 Relative value (based on control): 2.81
  SMA-α Relative value (based on control): 2.99
[5]; Day 0
  change in body weight: 0.0
[5]; Day 7
  change in body weight: −10.1
[5]; Day 14
  change in body weight: −22.6
[5]; Day 17
  change in body weight: −20.0
[5]; Day 21
  change in body weight: −18.2
